Test results as given in patent publication US20100197611A1, “ALTERNATIVE AGENT WITH VITAMIN D-LIKE ACTIVITY AND AN IMPROVING AGENT FOR INTESTINAL FUNCTION” (priority 2003, published 2010).

Key:
24-hydroxylase gene = 24-hydroxylase gene expression (mRNA, RT-PCR) in Caco-2 cells; format: cell-based; conditions: 72 hours, 1 mmol/L glucose 1-phosphate sodium salt or 10 nmol/L 1α,25-dihydroxyvitamin D, FIG. 2
Source text: (§1) As a target cell of 1α,25-dihydroxyvitamin D and a sugar-phosphate ester, Caco-2 cells (from Dainippon Pharmaceutical Co. Ltd.) were employed. Caco-2 cells are known to differentiate to epitherial-like cells of small intestine. The Caco-2 cells were suspended in culture medium (10% fetal calf serum, none essential amino acids for MEM, […]/MEM Earle) and added to an insert of a fibrillar collagen culture plate (from Becton Dickinson Inc.). To the plate also, the culture medium was added, and cultured according to a usual method. The media in the insert and the plate were renewed at a regular interval, and the culture was subjected to a test at 15 days of incubation.

CaT1 gene = CaT1 gene expression (mRNA, RT-PCR) in Caco-2 cells; format: cell-based; conditions: 72 hours, 1 mmol/L glucose 1-phosphate sodium salt or 10 nmol/L 1α,25-dihydroxyvitamin D, FIG. 3
Source text: as §1

calbindin D9K = experiment: Intestinal calbindin D9K expression in aged rats (Western blotting); format: in vivo; conditions: aged rats (9 month, male, SD-IGS), 1.9% by weight in feed for 10 days, compared to control group; FIG. 4
Source text: On 10 days after the test started, rats were made starved by fasting for all day and night, then the small intestines were taken out, followed by extraction, immediate opening of the intestinal canal and stripping off the epitherial mucous membrane to prepare protein extract samples according to the method described by H. J. Armbrecht et al. (Am. J. Physiol., 236(6), e769-e774, 1979). These samples were separated by SDS-PAGE, followed by transferring on PVDF membrane (IPVH, pore size of 0.45, Millipore) in accordance with a usual procedure and assaying of calbindin D9K by the Western blotting method. Rabbit anti-calbindin D9K antibody (from Research Diagnostic Inc.) as the primary antibody and HRP anti-rabbit IgG (Bio-Rad) as the secondary antibody were used, and detected using ECL Plus kit (Bio-Rad). The detected protein bands were further quantified using Scion Image-analyzing software (from Scion Corp.).

Compound | gene expression of 24-hydroxylase (mRNA amount divided by housekeeping gene G3PDH) (24-hydroxylase gene) | gene expression of CaT1 (mRNA amount divided by housekeeping gene G3PDH) (CaT1 gene) | expression of calbindin D9K in small intestine (calbindin D9K)
1α,25-dihydroxyvitamin D | significantly enhanced | significantly enhanced | 
O=P([O-])([O-])O[C@H]1O[C@H](CO)[C@@H](O)[C@H](O)[C@H]1O.[Na+].[Na+] [glucose 1-phosphate sodium salt] |  |  | significantly enhance
